Test results reported in patent US20140350300A1, “ALISKIREN HEMIFUMARATE, CRYSTAL FORM AND AMORPHOUS SOLID” (DJADA PHARMACEUTICAL SA, priority 2011, published 2014).

How the values were obtained:
[1] = Compressibility test on tablets; assay type: physicochemical
Description: A set of tablets was prepared using different compression forces. A compressibility test was carried out on these.

[2] = Stability test (exposure to humidity, XRPD); assay type: physicochemical; details: 25° C.
Description: Stability tests were carried out on Aliskiren hemifumarate, amorphous solid of this invention and Aliskiren hemifumarate, amorphous solid obtained as described in WO2008/061622, maintaining the samples at 25° C., 75% RH. […] The same samples were exposed to 25° C., 60% RH.

Row | Compound | Rupture Strength ([1]; tablet #1, compression strength 22.27 kN) [N] | Rupture Strength ([1]; tablet #2, compression strength 23.82 kN) [N] | Rupture Strength ([1]; tablet #3, compression strength 24.15 kN) [N] | Rupture Strength ([1]; tablet #4, compression strength 6.80 kN) [N] | Rupture Strength ([1]; tablet #5, compression strength 7.95 kN) [N] | Rupture Strength ([1]; tablet #6, compression strength 10.10 kN) [N] | Rupture Strength ([1]; tablet #7, compression strength 11.55 kN) [N] | Rupture Strength ([1]; tablet #8, compression strength 7.88 kN) [N] | Rupture Strength ([1]; tablet #9, compression strength 10.15 kN) [N] | Rupture Strength ([1]; tablet #10, compression strength 13.18 kN) [N] | Rupture Strength ([1]; tablet #11, compression strength 15.60 kN) [N] | Rupture Strength ([1]; tablet #12, compression strength 14.12 kN) [N] | Typical nature of the diffractogram (XRPD pattern) after exposure ([2]; 60% RH, 5 days, curve A basal vs curve B, FIG. 15) | Change of physical form of the sample ([2]; 75% RH, after 2 hours) | Rupture strength compared with tablets of amorphous solid obtained as described in WO2008/061622 ([1]; comparison of Tables 7 and 8) | Rupture Strength ([1]; tablet #1, compression strength 11.83 kN) [N] | Rupture Strength ([1]; tablet #2, compression strength 5.83 kN) [N] | Rupture Strength ([1]; tablet #3, compression strength 16.45 kN) [N] | Rupture Strength ([1]; tablet #4, compression strength 10.85 kN) [N] | Rupture Strength ([1]; tablet #5, compression strength 19.43 kN) [N]
1 | COCCCOc1cc(C[C@@H](C[C@H](N)[C@@H](O)C[C@H](C(=O)NCC(C)(C)C(N)=O)C(C)C)C(C)C)ccc1OC | 1.5 | 2 | 1.5 | 2 | 2 | 1.5 | 2.2 | 2.5 | 2 | 2 | 2 | 2 |  |  |  |  |  |  |  | 
2 | COCCCOc1cc(C[C@@H](C[C@H](N)[C@@H](O)C[C@H](C(=O)NCC(C)(C)C(N)=O)C(C)C)C(C)C)ccc1OC [(2S,4S,5S,7S)-5-amino-N-(3-amino-2,2-dimethyl-3-oxypropyl)-4-hydroxy-7-[[4-methoxy-3-(3-methoxypropoxy)pheny]methyl]-8-methyl-2-propan-2 ilnonanamide] |  |  |  |  |  |  |  |  |  |  |  |  | lost | changed from solid to viscous liquid form | higher | 4.5 | 4 | 2 | 4 | 3.5
